Here are results for 18 molecules from patent publication US20150175556A1, “DIHYDROPYRIMIDIN-2(1H)-ONES AND DIHYDROPYRIMIDIN-2(1H)-THIONES AS INHIBITORS OF SODIUM IODIDE SYMPORTER” (COMMISSARIAT A L'ENERGIE ATOMIQUE ET AUX ENERGIES …, priority 2012, published 2015).

Series [1] deals with T1, sodium iodide symporter (NIS), iodide uptake in FRTL5 cells (Rattus norvegicus, UniProt Q63008).
T1 construct: endogenous in cells; host or cells: FRTL5 (rat thyroid-derived cells)
T1 sequence (Q63008 1-618): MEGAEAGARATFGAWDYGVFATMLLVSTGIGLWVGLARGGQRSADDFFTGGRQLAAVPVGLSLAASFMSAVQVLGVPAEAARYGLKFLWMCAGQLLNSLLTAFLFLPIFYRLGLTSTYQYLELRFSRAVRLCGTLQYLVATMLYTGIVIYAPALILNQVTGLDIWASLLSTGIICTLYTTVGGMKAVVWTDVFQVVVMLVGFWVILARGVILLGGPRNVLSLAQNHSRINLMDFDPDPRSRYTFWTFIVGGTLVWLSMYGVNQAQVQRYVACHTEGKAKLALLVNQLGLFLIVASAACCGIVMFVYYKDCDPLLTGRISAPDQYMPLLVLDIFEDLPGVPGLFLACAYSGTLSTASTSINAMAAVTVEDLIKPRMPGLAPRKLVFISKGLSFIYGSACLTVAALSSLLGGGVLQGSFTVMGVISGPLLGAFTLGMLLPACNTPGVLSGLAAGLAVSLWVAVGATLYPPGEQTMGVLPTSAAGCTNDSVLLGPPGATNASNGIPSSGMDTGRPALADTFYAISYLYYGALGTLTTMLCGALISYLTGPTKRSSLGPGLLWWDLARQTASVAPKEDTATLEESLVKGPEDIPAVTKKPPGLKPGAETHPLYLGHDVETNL
The experiment in a line: Inhibition of iodide uptake in FRTL5 cells, non radioactive arsenic/cerium assay. As to conditions: NaI 10 μM, 1 hour, 20°C, read-out: IC50 (μM), inhibitory activity against iodide uptake in FRTL5 cells. It counts as cell-based. Here is the method:
Some of the synthesized compounds were evaluated for their ability to inhibit iodide entrapment in FRTL5 cells. The IC50 values were measured in at least […] independent experiments.
The biological activity of each compound was determined in FRTL5 cells, using a non radioactive arsenic/cerium assay as described in F. Waltz et al., Anal. Biochem., 2012, 396, 91-95. Compound potency was expressed as IC50, the concentration of compound necessary to achieve 50% inhibition of iodide uptake. Briefly, to FRTL5 cells at 70-90% confluence was added compound (200 μM, 10 μM, 0.5 μM, 25 nM, 1.2 nM, 60 pM, […], and 0.15 pM final), followed by NaI (10 μM final). After 1 hour incubation at 20±1° C., supernatant was removed and the cells were immediately assayed for iodide content using the modified As/Ce Sandell-Kolthoff reaction. NaClO4 was tested in each microplate as assay controls. The IC50 values of all compounds were measured least thrice independently.
Stock solutions of tested compounds were prepared in DMSO (20 mM) and that of NaClO4 in water (20 mM). These stock solutions were stored at 4° C. for up to 2 months. Sample dilutions: the day of the assay, a daughter plate (clear flat-bottomed 96-well polystyrene microplates, Costar 9017) was prepared from 20 mM stock solutions. NaClO4 (column 2) and DHPM samples (columns 4 to 11) were diluted at 10× the final concentration in uptake buffer.
FRTL5 cells were cultured as described in F. S. Ambesi-Impiombato et al., Proc. Natl. Acad. Sci. USA, 1980, 77, 3455-3459. Briefly, FRTL5 cells were cultured in Coon's modified F12 medium supplemented with 5% heat-inactivated fetal bovine serum (Invitrogen), 2 mM L-glutamine, 100 U/mL penicillin, 0.1 mg/mL streptomycin, 10 μg/mL insulin, 10 nM hydrocortisone, 10 ng/mL Gly-His-Lys acetate, 1 mU/mL TSH, 5 μg/mL transferrin at 37° C. and 5% CO2. For iodide uptake assays, 200 μL of FRTL5 cells with density of 250,000 cells/mL were dispensed in each well of clear flat-bottomed 96-well polystyrene microplates (Costar 3628) using the Multidrop 384 (ThermoFisher Scientific), and further cultured until confluence reached 80-90% (3-4 days).
The culture medium of FRTL5 monolayer cells at 80-90% confluence was replaced by uptake buffer (20° C.) via continuous aspiration/dispense cycle (600 μL) using a 96-needle head plate washer PW 384 (Tecan). The 96-needle head was set to a vertical position such that 80 μL of fresh uptake buffer remained in each well at the end of the cycle. The samples (10 μL each) from the daughter plate were transferred all at once to the assay plate using the 96-tip head pipettor Liquidator 96 (Mettler Toledo). Immediately after, 10 μL of a NaI solution at 100 μM was added to each well of the assay plate using the Liquidator 96. The assay plate was left to stand in the dark at 20±1° C. for 60 min. The assay plate was then washed with cold (4° C.) uptake buffer using the PW 384 plate washer and residual supernatant was immediately discarded by inverting the assay plate on absorbent paper.
Sodium iodide standards (S1 to S7) and water (S0) were distributed in duplicate (100 μL each) in the first and last column of the assay plate. Water (100 μL) was added to the columns with the Multidrop 384. 100 μL of the ammonium cerium (IV) sulfate solution (10.5 mM) was distributed into the columns, followed by 100 μL of the sodium arsenite (III) solution (24 mM) using the Multidrop 384. The assay plate was left to stand at 20±1° C. for 30 min. The absorbance at 420 nm (Abs420) was immediately recorded on a SpectraMax Plus 384 (Molecular Devices). A calibration curve was prepared for each plate by plotting the logarithmic conversion of the means of Abs420 (n=2) vs iodide standard concentrations (S0 to S7). The iodide concentrations in the samples were determined after linear regression of the calibration curve.

Setting [2] is: Table 1, variations at R1, averaged from three or four independent experiments.
Where [3] appears, read: Table 2, variations at R5, averaged from three or four independent experiments.
[4] abbreviates: Table 3, variations at R2, averaged from three or four independent experiments.
[5] abbreviates: Table 4, variations at X, R3, R4, averaged from three or four independent experiments.
[6] abbreviates: Table 5, variations at Y, R1, R3, R4, R5, averaged from two to four independent experiments.

Like-named read-outs stand apart in the source and are kept apart here.

The molecule `COc1ccc(COC(=O)C2=C(C)NC(=O)NC2c2ccoc2)cc1` (stereo not drawn) [Compound 28, 4-Methoxybenzyl 4-(furan-3-yl)-6-methyl-2-oxo-1,2,3,4-tetrahydropyrimidine-5-carboxylate] gave a melting point of 157 to 159 °C. The IC50 in series [1] (setting [2]) was found to be 0.02 µM.
Turning to `COc1ccc(COC(=O)C2=C(C)NC(=O)NC2c2ccc(C)o2)cc1` (stereo not drawn) [Compound 29, 4-Methoxybenzyl 6-methyl-2-oxo-4-(5-methylfuran-2-yl)-1,2,3,4-tetrahydropyrimidine-5-carboxylate], the melting point is 157 to 159 °C. The concentration for half-maximal inhibition (IC50) in series [1] (setting [2]) is 0.09 µM.
In the same order, the values of `COc1ccc(COC(=O)C2=C(C)NC(=O)NC2c2cccs2)cc1` (stereo not drawn) [Compound 30, 4-Methoxybenzyl 4-(thiophen-2-yl)-6-methyl-2-oxo-1,2,3,4-tetrahydropyrimidine-5-carboxylate] are 152 to 154 °C and 0.05 µM.
The matching figures for `COc1ccc(COC(=O)C2=C(C)NC(=O)NC2c2ccsc2)cc1` (stereo not drawn) [Compound 31, 4-Methoxybenzyl 6-methyl-2-oxo-4-(thiophen-3-yl)-1,2,3,4-tetrahydropyrimidine-5-carboxylate]: 156 to 158 °C and 0.04 µM.
With `CC1=C(C(=O)OCc2ccccc2)C(c2ccccc2)NC(=O)N1` (stereo not drawn) [Compound 32, Benzyl 6-methyl-2-oxo-4-phenyl-1,2,3,4-tetrahydropyrimidine-5-carboxylate], the melting point fell in the range of 174 to 175 °C. Further, the half-inhibitory concentration (IC50) in series [1] (setting [3]) is 0.19 µM.
The matching figures for `CC1=C(C(=O)OCc2ccccc2Cl)C(c2ccccc2)NC(=O)N1` (stereo not drawn) [Compound 33, 2-Chlorobenzyl 6-methyl-2-oxo-4-phenyl-1,2,3,4-tetrahydropyrimidine-5-carboxylate]: 193 to 195 °C and 0.35 µM.
`CC1=C(C(=O)OCc2ccc(Cl)cc2)C(c2ccccc2)NC(=O)N1` (stereo not drawn) [Compound 34, 4-Chlorobenzyl 6-methyl-2-oxo-4-phenyl-1,2,3,4-tetrahydropyrimidine-5-carboxylate] showed a melting point of 216 to 217 °C. In series [1] (setting [3]), the IC50 was determined as 0.3 µM.
In the same order, the values of `CC1=C(C(=O)OCc2ccc(F)cc2)C(c2ccccc2)NC(=O)N1` (stereo not drawn) [Compound 35, 4-Fluorobenzyl 6-methyl-2-oxo-4-phenyl-1,2,3,4-tetrahydropyrimidine-5-carboxylate] are 196 to 197 °C and 0.2 µM.
`CC1=C(C(=O)OCc2ccccc2C)C(c2ccccc2)NC(=O)N1` (stereo not drawn) [Compound 36, 2-Methylbenzyl 6-methyl-2-oxo-4-phenyl-1,2,3,4-tetrahydropyrimidine-5-carboxylate] had a melting point of 157 to 159 °C. Also, the IC50 in series [1] (setting [3]) was 0.25 µM.
In turn, `CCC1=C(C(=O)OCc2ccc(OC)cc2)C(c2ccccc2)NC(=O)N1` (stereo not drawn) [Compound 40, 4-Methoxybenzyl 6-ethyl-2-oxo-4-phenyl-1,2,3,4-tetrahydropyrimidine-5-carboxylate] came in with a melting point of 62 to 65 °C. Further, the IC50 in series [1] (setting [4]) stood at 0.07 µM.
The matching figures for `COc1ccc(COC(=O)C2=C(Cc3ccccc3)NC(=O)NC2c2ccccc2)cc1` (stereo not drawn) [Compound 45, 4-Methoxybenzyl 6-benzyl-2-oxo-4-phenyl-1,2,3,4-tetrahydropyrimidine-5-carboxylate]: 140 to 142 °C and 0.25 µM.
The matching figures for `COc1ccc(COC(=O)C2=C(CNC(=O)c3ccccc3)NC(=O)NC2c2ccccc2)cc1` (stereo not drawn) [Compound 47, 4-Methoxybenzyl 2-oxo-6-(benzamidomethyl)-4-phenyl-1,2,3,4-tetrahydropyrimidine-5-carboxylate]: 213 to 216 °C and 1.2 µM.
In the same order, the values of `COc1ccc(COC(=O)C2=C(c3cccs3)NC(=O)NC2c2ccccc2)cc1` (stereo not drawn) [Compound 48, 4-Methoxybenzyl 2-oxo-4-phenyl-6-(thiophen-2-yl)-1,2,3,4-tetrahydropyrimidine-5-carboxylate] are 78 to 80 °C and 0.55 µM.
`COc1ccc(COC(=O)C2=C(C)N(C)C(=O)NC2c2ccccc2)cc1` (stereo not drawn) [Compound 50, 4-Methoxybenzyl 1,6-dimethyl-2-oxo-4-phenyl-1,2,3,4-tetrahydropyrimidine-5-carboxylate] showed a melting point of 134 to 136 °C. Further, the IC50 in series [1] (setting [5]) was 0.075 µM.
The matching figures for `COc1ccc(COC(=O)C2=C(C)NC(=S)NC2c2ccccc2)cc1` (stereo not drawn) [Compound 52, 4-methoxybenzyl 6-methyl-4-phenyl-2-thioxo-1,2,3,4-tetrahydropyrimidine-5-carboxylate]: 174 to 175 °C and 0.095 µM.
Consider `COc1ccc(COC(=O)C2=C(C)N(C)C(=O)NC2c2ccco2)cc1` (stereo not drawn) [Compound 53, 4-Methoxybenzyl 4-(furan-2-yl)-1,6-dimethyl-2-oxo-1,2,3,4-tetrahydropyrimidine-5-carboxylate], for which the melting point was in the range of 112 to 113 °C. Besides, in series [1] (setting [6]), the IC50 stood at 0.09 µM.
The matching figures for `COc1cccc(COC(=O)C2=C(C)NC(=O)NC2c2ccco2)c1` (stereo not drawn) [Compound 55, 3-methoxybenzyl 4-(furan-2-yl)-6-methyl-2-oxo-1,2,3,4-tetrahydropyrimidine-5-carboxylate]: 165 to 166 °C and 0.00057 µM.
In the same order, the values of `COc1cccc(COC(=O)C2=C(C)N(C)C(=O)NC2c2ccco2)c1` (stereo not drawn) [Compound 56, 3-Methoxybenzyl 4-(furan-2-yl)-1,6-dimethyl-2-oxo-1,2,3,4-tetrahydropyrimidine-5-carboxylate] are 155 to 156 °C and 0.075 µM.

As a reminder, the melting point is the temperature of the solid-liquid transition. What is called IC50 is the point on the concentration scale where inhibition reaches its midpoint.
